Measurements reported in patent publication US11357719B2, “Method for obtaining a diglycoside-enriched Armeria maritima extract, and use thereof in cosmetics” (BIOTECHMARINE, priority 2016, dated 2022).
“And” between values parts separate entries of the source, which are not always exact repeats. Identical values can stand only once.

Key:
normal human fibroblasts = test: Phototoxicity evaluation based on OECD test no. 432 (in vitro 3T3 NRU phototoxicity test), MTT viability; type: cell-based
Description: This evaluation is carried out based on the experimental conditions of test no. 432, entitled “in vitro 3T3 NRU phototoxicity test” from the OECD guidelines for testing chemicals, regarding conditions related to culture kinetics and to the acceptable dosage limit for Chlopromazine (CPZ). This guideline describes a method for evaluating photo-cytotoxicity by the relative reduction in the viability of the cells exposed to the chemical product in the presence or absence of light.
A pool of normal human fibroblasts of Caucasian type is used and amplified for five days in a 75 cm^2 flask in specific culture medium containing 10% FBS*. The cells are then seeded in culture wells of a 96-well plate (4 wells/condition), at 10 000 cells/well, in 200 μl of specific culture medium containing 10% FBS (Fetal Bovine Serum). 24 h after seeding, the cells are treated with the products for the test, prepared in EBSS (Earle's balance salt Solution) for one hour. At the end of this incubation, the cells are exposed (+irr) or not exposed (−irr) to a dose of 1 J/cm^2 of UVA, in the presence of the products being tested. At the end of this exposure, the cell layers are rinsed then brought back into contact with specific culture medium containing 2% of FBS. 24 h after this change, the cell viability is evaluated using the MTT method (colorimetric assay, visualized at 540 nm). The results are expressed as percentage viability relative to the control. The following parameters are deduced therefrom:
EC50: Concentration of active agent inducing 50% toxicity (−irr) or phototoxicity (+irr)
PIF (photo-irradiation factor): EC50(−irr)/EC50(+irr)
2<PIF<5: Probable phototoxicity

purified collagenase = test: Anti-collagenase activity, EnzCheck gelatinase/collagenase Assay Kit (cell-free, fluorimetry); type: biochemical, Clostridium Histolyticum; details: for Fluorescence: 2 h incubation at room temperature, blank subtracted; for Inhibition: relative to control group
Description: A purified collagenase is used and the degradation of its pro-fluorescent substrate is monitored by fluorimetry.
The anti-collagenase activity is evaluated using a commercially available kit (EnzCheck™ gelatinase/collagenase Assay Kit, Molecular Probes, reference E-12055).
This is a test based on a cell-free biochemical evaluation using a purified collagenase from a […] (Clostridium Histolyticum) and a purified gelatin from porcine skin, purified type I collagen from bovine skin or purified type IV collagen from human placenta. […] The increase in the fluorescence is proportional to the MMP activity. A decrease in this fluorescence is expected in the presence of anti-MMP active agents. The test is validated using a reference anti-MMP inhibitor provided in the kit, 1,10-phenanthroline, tested at 0.01% and 0.001%.
The products are placed on a 96-well plate in the following manner:
The products are left to incubate for two hours at room temperature in darkness, then the fluorescence is determined (Excitation 495 nm; Emission: 515 nm). Each test is repeated three times. For each sample, the values are subtracted from the blank test. The percentage inhibition corresponds to the ratio of the mean of the collagenase activity obtained for each extract to the mean of the collagenase activity of the control group.

Compound	PIF (photo-irradiation factor): EC50(−irr)/EC50(+irr) (normal human fibroblasts; PIF<2 no phototoxicity, 2<PIF<5 probable phototoxicity, PIF>5 phototoxicity)	EC50(+irr): concentration of active agent inducing 50% phototoxicity (normal human fibroblasts; exposed to 1 J/cm^2 of UVA, MTT viability 24 h after)	EC50(−irr): concentration of active agent inducing 50% toxicity (normal human fibroblasts; not exposed to UVA, MTT viability 24 h after)	Fluorescence (purified collagenase; product at 0.001%)	Inhibition (purified collagenase; product at 0.001%)	Fluorescence (purified collagenase; product at 0.01%)	Inhibition (purified collagenase; product at 0.01%) [%]
CN(C)CCCN1c2ccccc2Sc2ccc(Cl)cc21 [CPZ, Chlopromazine]	89.2	0.25	22.30	–	–	–	–
c1cnc2c(c1)ccc1cccnc12 [1,10-phenanthroline]	–	–	–	37.13 AU and 24.41 AU	66% and 76%	0.91 AU and 1.07 AU	99
